Drawing on publication PMC5681660, “Reduced hepatitis B and D viral entry using clinically applied drugs as novel inhibitors of the bile acid transporter NTCP” (Scientific Reports, 2017), this text covers B-score binding assay, B-score functional assay and Ranking score for 38 molecules.

Counter-ions that a name gives are not always drawn. Like-named read-outs stand apart in the source and are kept apart here.

Experiment [1] addresses T1, human NTCP (Homo sapiens, UniProt Q14973).
T1 sequence (Q14973 1-349): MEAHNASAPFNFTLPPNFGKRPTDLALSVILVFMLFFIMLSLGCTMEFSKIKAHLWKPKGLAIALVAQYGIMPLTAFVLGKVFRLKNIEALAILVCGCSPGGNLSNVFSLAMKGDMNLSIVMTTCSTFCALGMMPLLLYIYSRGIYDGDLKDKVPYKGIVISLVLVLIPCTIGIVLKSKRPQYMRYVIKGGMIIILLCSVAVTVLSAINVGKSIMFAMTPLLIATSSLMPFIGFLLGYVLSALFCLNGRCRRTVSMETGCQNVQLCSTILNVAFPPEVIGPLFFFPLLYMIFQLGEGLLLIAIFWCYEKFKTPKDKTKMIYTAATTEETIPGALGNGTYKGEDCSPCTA
Description: Screening fluorescent competitive Myrcludex B-FITC binding assay (96-well, 10 µM drug).

Experiment [2] has as its target T1, human NTCP. The experiment can be described thus: Screening taurocholate uptake assay (96-well, [14C]taurocholate, 10 µM drug).
[3] abbreviates: Prestwick library screen, 10 µM drug, B-score of Myrcludex B-FITC binding.
[4] abbreviates: Prestwick library screen, 10 µM drug, B-score of taurocholate uptake.
Setting [5] is: combined ranking from functional and binding assay B-scores.
[6] abbreviates: Prestwick library screen, Myrcludex B-FITC binding, 10 µM drug.
Setting [7] is: Prestwick library screen, taurocholate uptake, 10 µM drug.
The mark [8] stands for this setting: ranking score beside the functional and binding assay B-scores of the screen.
Setting [9] is: screen, 10 µM drug, Myrcludex B-FITC binding.
Where [10] appears, read: combined ranking from functional and binding screening assays.
Setting [11] is: screen, 10 µM drug, taurocholate uptake.

On human NTCP [1] (setting [3]), `CCOC(=O)C(C)(C)Oc1ccc(Cl)cc1` [Clofibrate] displayed a B-score binding assay of 0.712. Besides, the B-score functional assay at human NTCP [2] (setting [4]) came out at 1.746. Further, at human NTCP [2] (setting [5]), the Ranking score turned out to be 1068.42.
`CCN(CC)CC#CCOC(=O)C(O)(c1ccccc1)C1CCCCC1` (stereo not drawn) [Oxybutynin chloride]: the B-score binding assay on human NTCP [1] (setting [6]) is listed as 0.285. In addition, the B-score functional assay at human NTCP [2] (setting [7]) is listed as 0.163. Further, the Ranking score at human NTCP [2] (setting [8]) was found to be 808.614.
`COC(=O)Nc1nc2ccc([S+]([O-])c3ccccc3)cc2[nH]1` (stereo not drawn) [Oxfendazol] showed a B-score binding assay at human NTCP [1] (setting [3]) of 1.363. This molecule displayed a B-score functional assay at human NTCP [2] (setting [4]) of 0.699. Also, the Ranking score on human NTCP [2] (setting [5]) amounted to 1042.44.
`CCCCNc1cc(C(=O)O)cc(S(N)(=O)=O)c1Oc1ccccc1` [Bumetanide]: at human NTCP [1] (setting [3]), the B-score binding assay is 1.043. This molecule displayed a B-score functional assay at human NTCP [2] (setting [4]) of 0.161. At human NTCP [2] (setting [5]), the Ranking score is 907.588.
In turn, `COc1ccc(CC2c3cc(OC)c(OC)cc3CC[N+]2(C)CCC(=O)OCCCCCOC(=O)CC[N+]2(C)CCc3cc(OC)c(OC)cc3C2Cc2ccc(OC)c(OC)c2)cc1OC` (stereo not drawn) [Atracurium besylate] returned a B-score binding assay on human NTCP [1] (setting [3]) of 0.189. This molecule came in with a B-score functional assay on human NTCP [2] (setting [4]) of 2.141. The Ranking score on human NTCP [2] (setting [5]) stood at 978.724.
For `O=C1c2cccc3c2[C@H](CCC3)CN1[C@@H]1CN2CCC1CC2` [Palonosetron hydrochloride], the B-score binding assay at human NTCP [1] (setting [6]) is -0.051. Further, the B-score functional assay on human NTCP [2] (setting [7]) was found to be 1.95. On human NTCP [2] (setting [8]), this molecule displayed a Ranking score of 833.96.
For the molecule `Cc1cn[nH]c1` [Fomepizole], the B-score binding assay at human NTCP [1] (setting [6]) was -0.028. The molecule further had a B-score functional assay on human NTCP [2] (setting [7]) of 0.928. Moreover, the Ranking score at human NTCP [2] (setting [8]) was 795.707.
Take `C#C[C@]1(O)CC[C@H]2[C@@H]3CCC4=CC(=O)CCC4=C3C=C[C@@]21CC` [Gestrinone]: on human NTCP [1] (setting [9]), the B-score binding assay is recorded as -0.596. Besides, the Ranking score at human NTCP [2] (setting [10]) was found to be 385.482. For the same molecule, the B-score functional assay on human NTCP [2] (setting [11]) is on record as -0.358.
For `CCCC(CCC)C(=O)O` [Valproic acid], the B-score binding assay at human NTCP [1] (setting [3]) is recorded as 1.515. The B-score functional assay on human NTCP [2] (setting [4]) was found to be 0.92. Further, the Ranking score at human NTCP [2] (setting [5]) came out at 1093.47.
`CCCC1C(=O)N2C(N(C)C)=Nc3ccc(C)cc3N2C1=O` (stereo not drawn) [Azapropazone]: the B-score binding assay on human NTCP [1] was -1.852. Also, at human NTCP [2], the B-score functional assay is reported as -0.788 and the Ranking score worked out at 190.672.
`Nc1nnc(-c2cccc(Cl)c2Cl)c(N)n1` [Lamotrigine] came in with a B-score binding assay on human NTCP [1] (setting [6]) of 0.084. Also, the B-score functional assay at human NTCP [2] (setting [7]) is listed as 0.153. The molecule also displayed a Ranking score on human NTCP [2] (setting [8]) of 756.135.
On to `OCCN(CCO)c1nc(N2CCCCC2)c2nc(N(CCO)CCO)nc(N3CCCCC3)c2n1` [Dipyridamole], for which, at human NTCP [1] (setting [9]), the B-score binding assay is reported as -0.011. For the same molecule, the Ranking score on human NTCP [2] (setting [10]) amounted to 317.643. Moreover, on human NTCP [2] (setting [11]), the B-score functional assay was -1.651.
In the case of `CCC1=C(C)CN(C(=O)NCCc2ccc(S(=O)(=O)NC(=O)N[C@H]3CC[C@H](C)CC3)cc2)C1=O` [Glimepiride], the B-score binding assay at human NTCP [1] (setting [9]) was determined as 0.412. Besides, at human NTCP [2] (setting [10]), the Ranking score is reported as 350.338. The B-score functional assay on human NTCP [2] (setting [11]) is -1.888.
On the same counts, the results for `CCCCNC(=O)NS(=O)(=O)c1ccc(C)cc1` [Tolbutamide] are -0.855, 448.765 and 0.082.
On human NTCP [1] (setting [6]), `CN(C)CC/C=C1/c2ccccc2Sc2ccc(Cl)cc21` [Chlorprothixene hydrochloride] had a B-score binding assay of -0.184. The molecule further returned a B-score functional assay at human NTCP [2] (setting [7]) of 0.429. For the same molecule, the Ranking score at human NTCP [2] (setting [8]) turned out to be 661.498.
`CCN(CC)CCCC(C)Nc1ccnc2cc(Cl)ccc12` (stereo not drawn) [Chloroquine diphosphate]: the B-score binding assay on human NTCP [1] is 0.002. For the same molecule, at human NTCP [2], the B-score functional assay worked out at 0.222 and the Ranking score was 726.833.
In turn, `Cc1ccc(C(=O)c2cc(O)c(O)c([N+](=O)[O-])c2)cc1` [Tolcapone] displayed a B-score binding assay at human NTCP [1] (setting [9]) of 1.049. At human NTCP [2] (setting [10]), the Ranking score is 424.338. For the same molecule, the B-score functional assay at human NTCP [2] (setting [11]) is -1.594.
On human NTCP [1] (setting [3]), `CN1CCCCC1CCN1c2ccccc2Sc2ccc([S+](C)[O-])cc21` (stereo not drawn) [Mesoridazine besylate] had a B-score binding assay of 0.002. Moreover, at human NTCP [2] (setting [4]), the B-score functional assay was determined as 2.438. At human NTCP [2] (setting [5]), the Ranking score amounted to 892.285.
Taken in the same sequence, the figures for (-) -Levobunolol hydrochloride were 1.256, 0.733 and 1039.8.
Taken in the same sequence, the figures for `Nc1nc(=O)n([C@@H]2CS[C@H](CO)O2)cc1F` [(-)-Emtricitabine] were 0.464, 1.373 and 1006.
Taken in the same sequence, the figures for `CN(C)CCCSC(=N)N.Cl.Cl` [Dimaprit dihydrochloride] were 1.724, 0.472 and 1022.56.
Molecule `Cl.O=c1[nH]oc2c1CCNC2` [THIP Hydrochloride] gave a B-score binding assay at human NTCP [1] (setting [9]) of -1.136. At human NTCP [2] (setting [10]), the Ranking score was 426.394. The B-score functional assay on human NTCP [2] (setting [11]) is listed as 0.28.
Molecule `C[C@]12C[C@H]3S[C@H]3C[C@@H]1CC[C@@H]1[C@@H]2CC[C@]2(C)[C@@H](O)CC[C@@H]12` [Epitiostanol] gave a B-score binding assay on human NTCP [1] of 0.911. At human NTCP [2], this molecule came in with a B-score functional assay of 0.926 and a Ranking score of 1032.88.
At human NTCP [1] (setting [9]), `O=C1NCCN1c1ncc([N+](=O)[O-])s1` [Niridazole] displayed a B-score binding assay of -0.358. Moreover, the Ranking score at human NTCP [2] (setting [10]) was determined as 301.174. In addition, the B-score functional assay at human NTCP [2] (setting [11]) is reported as -1.225.
For the molecule `CCCc1cc(=O)[nH]c(=S)[nH]1` [Propylthiouracil], the B-score binding assay at human NTCP [1] (setting [6]) worked out at 0.14. On human NTCP [2] (setting [7]), this molecule showed a B-score functional assay of 0.437. Also, the Ranking score on human NTCP [2] (setting [8]) turned out to be 823.744.
Molecule `C[C@]12CC[C@@H](O)C[C@H]1CC[C@@H]1[C@@H]2CC[C@]2(C)C(=O)CC[C@@H]12` [3-alpha-Hydroxy-5-beta-androstan-17-one] displayed a B-score binding assay at human NTCP [1] of 0.051. On human NTCP [2], the B-score functional assay is recorded as -2.764 and the Ranking score is 235.83.
`c1coc(CNc2ncnc3nc[nH]c23)c1` [6-Furfurylaminopurine] displayed a B-score binding assay at human NTCP [1] (setting [6]) of -0.434. The molecule further gave a B-score functional assay on human NTCP [2] (setting [7]) of 2.357. Further, the Ranking score on human NTCP [2] (setting [8]) worked out at 696.25.
Regarding `Clc1ccc(C(c2ccccc2Cl)C(Cl)Cl)cc1` (stereo not drawn) [Mitotane], the B-score binding assay on human NTCP [1] (setting [9]) was determined as 2.009. At human NTCP [2] (setting [10]), the Ranking score is on record as 352.681. This molecule also displayed a B-score functional assay on human NTCP [2] (setting [11]) of -2.371.
On human NTCP [1] (setting [6]), `CC(CCc1ccc(O)cc1)NCCc1ccc(O)c(O)c1` (stereo not drawn) [Dobutamine hydrochloride] showed a B-score binding assay of 1.051. Also, the B-score functional assay on human NTCP [2] (setting [7]) was -0.038. Moreover, the Ranking score on human NTCP [2] (setting [8]) was 789.916.
Molecule `CN1C(C)(C)CCCC1(C)C` [Pempidine tartrate] came in with a B-score binding assay at human NTCP [1] (setting [3]) of 1.02. The B-score functional assay at human NTCP [2] (setting [4]) stood at 1.102. Also, the Ranking score at human NTCP [2] (setting [5]) is 1065.26.
Taken in the same sequence, the figures for `Cc1cn([C@H]2C[C@H](N=[N+]=[N-])[C@@H](CO)O2)c(=O)[nH]c1=O` [Zidovudine, AZT] were 0.429, 1.119 and 985.737.
Taken in the same sequence, the figures for `NS(=O)(=O)c1cc2c(cc1C(F)(F)F)NCNS2(=O)=O` [Hydroflumethiazide] were 0.137, 0.664 and 856.507.
Consider `C[C@H](CCC(=O)O)[C@H]1CC[C@H]2[C@@H]3C(=O)C[C@@H]4CC(=O)CC[C@]4(C)[C@H]3CC(=O)[C@]12C` [Dehydrocholic acid], for which, at human NTCP [1] (setting [9]), the B-score binding assay is -0.083. In addition, on human NTCP [2] (setting [10]), the Ranking score came to 309.304. In addition, the B-score functional assay at human NTCP [2] (setting [11]) is listed as -1.555.
On the same counts, the results for `OCc1cc(C(O)CNCCCCCCOCCCCc2ccccc2)ccc1O` (stereo not drawn) [Salmeterol] are -0.999, 391.804 and 0.004.
Regarding `NC(=O)c1cc[n+](CC2=C(C(=O)O)N3C(=O)[C@@H](NC(=O)[C@@H](c4ccccc4)S(=O)(=O)[O-])[C@H]3SC2)cc1` [Cefsulodin sodium salt], the B-score binding assay at human NTCP [1] (setting [6]) was -0.269. For the same molecule, the B-score functional assay on human NTCP [2] (setting [7]) turned out to be 0.682. The molecule further displayed a Ranking score at human NTCP [2] (setting [8]) of 669.358.
As to `CCN(CCO)CCCC(C)Nc1ccnc2cc(Cl)ccc12` (stereo not drawn) [Hydroxychloroquine sulfate], the B-score binding assay at human NTCP [1] (setting [6]) is 0.139. On human NTCP [2] (setting [7]), the B-score functional assay amounted to 0.168. This molecule also came in with a Ranking score on human NTCP [2] (setting [8]) of 775.907.
On the same counts, the results for `CCN1CCN(c2cc3c(cc2F)c(=O)c(C(=O)O)cn3C2CC2)CC1` [Enrofloxacin] are 0.083, 0.028 and 706.109.
`O=C1O[C@H]([C@@H](O)CO)C(O)=C1O` [Ascorbic acid] had a B-score binding assay at human NTCP [1] (setting [9]) of 0.271. The Ranking score at human NTCP [2] (setting [10]) is 365.334. This molecule also returned a B-score functional assay on human NTCP [2] (setting [11]) of -1.672.
